Results from article PMC4501006, “Preliminary Characterization and In Vivo Studies of Structurally Identical ^18F- and ^125I-Labeled Benzyloxybenzenes for PET/SPECT Imaging of β-Amyloid Plaques” (Scientific Reports, 2015).
Where “and” joins values, the source holds several entries; their conditions need not be identical. Identical values can stand only once.

Assays:
Aβ42 aggregates = Aβ42 aggregates (Homo sapiens, UniProt P05067); test: Competition binding assay using [125I]4 as radio-ligand; details: inhibition of [125I]4 binding to Aβ42 aggregates
Description: The actual binding affinities agreed well with values predicted by the CoMFA and CoMSIA models, with pKi values deviating by less than 0.5 log unit. This satisfactory result strongly validated the reliability of the established 3D-QSAR models. This ability to accurately predict the binding activities of new benzyloxybenzene derivatives will be of great help for future efforts to design new potent Aβ imaging agents.

[1] = Partition coefficient determination (log D); type: physicochemical
Method: An ideal Aβ imaging probe would combine a high binding affinity to Aβ plaques and excellent pharmacokinetics with high initial brain uptake and rapid washout from normal brain regions. Thus, the partition coefficients of these four radiolabeled ligands were determined to estimate their ability to penetrate the BBB.

[2] = In vivo metabolism (biostability), HPLC analysis of organ samples; details: ICR mice, i.v.
Method: All four radioactive ligands degraded to two corresponding polar radioactive products with shorter retention times. […] The good in vivo biostability of these compounds enhances their potential for SPECT mapping of the brain. […] In the plasma, all four ligands were rapidly converted to polar metabolites, leaving only approximately 10% of the parent tracers at 60 min. […] In contrast, the breakdown of [^125I]7a and [^125I]12a was so rapid that almost negligible amounts of parent tracers remained at 30 min (8.8% and 6.3%, respectively). The polar and hydrophilic metabolites metabolized by the liver could be absorbed by the intestine and excreted through the urine, in accordance with the biodistribution results. The rapid metabolism in the liver may be another reason for the faster clearance of these compounds from the normal brain. For structurally identical molecules labeled with radioactive isotopes at different positions, the in vivo metabolic pathways were expected to be the same. However, as only radioactive products can be detected with PET/SPECT scanners, different pharmacokinetics of the radioactive components could lead to different imaging results. […] The dual radiolabeled identical benzyloxybenzene derivatives in this study were expected to undergo the same metabolic reactions, generating different radioactive metabolites. Differences in the biochemical characteristics of the radiometabolites including absorption, distribution, metabolism and excretion are responsible for the discrepancy in the pharmacokinetics of the radioactivity.

[3] = In vivo biodistribution in normal ICR mice; details: i.v.
Method: Histograms of brain and intestine uptake were presented in Fig. 6 for comparison, while detailed data concerning the in vivo biodistribution in normal ICR mice were collected in Table S3 in Supplementary information. […] [^125I]7a and [^125I]12a were rapidly cleared from the normal brain, with only small amounts of radioactivity remaining at 60 min post-injection (0.55% ID/g for [^125I]7a and 0.37% ID/g for [^125I]12a). […] In addition, no significant deiodination was observed (less than 0.5% ID in the thyroid at 60 min).
As the specific activity of ^18F-labeled ligands (about 60 GBq/μmol) was slightly lower than that of corresponding no-carrier-added ^125I-labeled ligands (81 GBq/μmol), the impact of specific activity on pharmacokinetics was studied. In vivo biodistribution of radioactivity after injection of carrier-added [^125I]7a with equal specific activity to corresponding [^18F]7a (60 GBq/μmol) was conducted in normal ICR mice through the same procedure.
A structural model of an Aβ fiber (PDB ID: 2LMO) derived from solid state NMR was downloaded from the RCSB Protein Data Bank (www.rcsb.org/pdb). Geometric optimization was performed using Gaussian 09 at the B3LYP/6–31 G and 3-21G levels in the water phase. Molecular docking was performed using AutoDock4.0, and the docking results were graphed with VMD 1.9.1 software. SYBYL-X 1.1 software was used to predict the binding affinities with previously constructed 3D-QSAR models. All reagents for chemical synthesis were used as purchased without further purification. [^125I]NaI was purchased from PerkinElmer and ^18F^– was kindly provided by the Chinese PLA General Hospital. ^1H and ^13C NMR spectra were recorded on a Bruker Avance III NMR spectrometer (400 MHz for ^1H; 101 MHz for ^13C) in CDCl3 or DMSO-d6 solutions at room temperature. Mass spectra were acquired with a GCT CA127 Micronass UK instrument. X-ray crystallographic data of compound 12a were collected on a Bruker Smart APEX II diffractometer (Bruker Co., Germany) and deposited at the Cambridge Crystallographic Data Centre as supplementary publication (no. CCDC 1063679). HPLC analysis was performed on a Shimadzu SCL-20 AVP equipped with a Bioscan Flow Count 3200 NaI/PMT γ-radiation scintillation detector and a SPD-20A UV detector, λ = 254 nm. A Venusil MP C18 reverse phase column (Agela Technologies, 5 μm, 4.6 × 250 mm) was used for separations and purity determinations with a binary gradient system (acetonitrile: water = 80%: 20%) at a 1.0 mL/min flow rate. Fluorescent observation was performed on the Axio Observer Z1 inverted fluorescence microscope (Zeiss, Germany) equipped with a DAPI filter set (excitation, 405 nm). Post-mortem brain sections from an autopsy-confirmed AD subject and a control subject were acquired from the Chinese Brain Bank. Transgenic mice (APPswe/PSEN1, male) and wild-type mice (C57BL6, male) were purchased from the Institute of Laboratory Animal Science, Chinese Academy of Medical Sciences. Normal ICR mice (20–22 g, male) were used for in vivo biodistribution, dynamic PET/CT and SPECT/CT scans, and biostability experiments. All experiments on mice were performed in accordance with the guidelines approved by the animal care committee of Beijing Normal University and Xiamen University.

Aβ plaques = Aβ plaques (Homo sapiens, UniProt P05067); test: In vitro autoradiography on AD human brain sections; type: binding
Description: Figure 5 In vitro autoradiography of [^125I]7a (a–d), [^18F]7a (e–h), [^125I]12a (i–l) and [^18F]12a (m–p).

Sequence of Aβ42 aggregates (P05067 672-713 limits assumed): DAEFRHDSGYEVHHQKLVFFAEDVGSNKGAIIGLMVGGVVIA
Sequence of Aβ plaques (P05067 672-711 limits assumed): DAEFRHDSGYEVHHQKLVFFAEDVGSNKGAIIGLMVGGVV

Structure (SMILES): FCCOc1ccc(COc2ccc(I)cc2)cc1 [12a]
- Ki (Aβ42 aggregates): 23.9 nM

Structure (SMILES): FCCOc1ccc(COc2ccc([125I])cc2)cc1 [[^125I]12a]
- logD [1]: 3.62 ± 0.15
- Percentage of Parent tracer, Brain ([2]; post-injection time 2 min): 92.1%
- Percentage of Parent tracer, Feces ([2]; post-injection time 2 min): 0.0%
- Percentage of Parent tracer, Liver ([2]; post-injection time 2 min): 49.1%
- Percentage of Parent tracer, Plasma ([2]; post-injection time 2 min): 88.4%
- Percentage of Parent tracer, Urine ([2]; post-injection time 2 min): 0.0%
- Percentage of Parent tracer, Brain ([2]; post-injection time 10 min): 82.1%
- Percentage of Parent tracer, Feces ([2]; post-injection time 10 min): 0.0%
- Percentage of Parent tracer, Liver ([2]; post-injection time 10 min): 21.5%
- Percentage of Parent tracer, Plasma ([2]; post-injection time 10 min): 29.6%
- Percentage of Parent tracer, Urine ([2]; post-injection time 10 min): 0.0%
- Percentage of Parent tracer, Brain ([2]; post-injection time 30 min): 78.3%
- Percentage of Parent tracer, Feces ([2]; post-injection time 30 min): 0.0%
- Percentage of Parent tracer, Liver ([2]; post-injection time 30 min): 6.3%
- Percentage of Parent tracer, Plasma ([2]; post-injection time 30 min): 26.3%
- Percentage of Parent tracer, Urine ([2]; post-injection time 30 min): 0.0%
- Percentage of Parent tracer, Brain ([2]; post-injection time 60 min): 68.6%
- Percentage of Parent tracer, Feces ([2]; post-injection time 60 min): 0.0%
- Percentage of Parent tracer, Liver ([2]; post-injection time 60 min): 3.8%
- Percentage of Parent tracer, Plasma ([2]; post-injection time 60 min): 4.68%
- Percentage of Parent tracer, Urine ([2]; post-injection time 60 min): 0.0%
- brain2 min/brain60 min ratio [3]: 14.2
- Biodistribution of radioactivity, blood ([3]; 2 min): 4.96 ± 0.35 % injected dose per gram
- Biodistribution of radioactivity, brain ([3]; 2 min): > 5 % injected dose per gram and 5.27 % injected dose per gram
- Biodistribution of radioactivity, heart ([3]; 2 min): 6.61 ± 1.42 % injected dose per gram
- Biodistribution of radioactivity, intestine ([3]; 2 min): 4.81 ± 0.97 % injected dose per organ
- Biodistribution of radioactivity, kidney ([3]; 2 min): 9.16 ± 0.59 % injected dose per gram
- Biodistribution of radioactivity, liver ([3]; 2 min): 18.12 ± 2.34 % injected dose per gram
- Biodistribution of radioactivity, lung ([3]; 2 min): 10.30 ± 2.16 % injected dose per gram
- Biodistribution of radioactivity, muscle ([3]; 2 min): 3.47 ± 0.45 % injected dose per gram
- Biodistribution of radioactivity, pancreas ([3]; 2 min): 6.45 ± 0.56 % injected dose per gram
- Biodistribution of radioactivity, spleen ([3]; 2 min): 2.85 ± 0.30 % injected dose per gram
- Biodistribution of radioactivity, stomach ([3]; 2 min): 1.30 ± 0.14 % injected dose per organ
- Biodistribution of radioactivity, thyroid ([3]; 2 min): 0.13 ± 0.02 % injected dose per organ
- Biodistribution of radioactivity, brain ([3]; 2 min, listed as [125I]12a): 5.27 ± 0.98 % injected dose per gram
- Biodistribution of radioactivity, blood ([3]; 10 min): 3.88 ± 0.79 % injected dose per gram
- Biodistribution of radioactivity, brain ([3]; 10 min): 2.28 ± 0.27 % injected dose per gram
- Biodistribution of radioactivity, heart ([3]; 10 min): 2.12 ± 0.16 % injected dose per gram
- Biodistribution of radioactivity, intestine ([3]; 10 min): 10.68 ± 2.60 % injected dose per organ
- Biodistribution of radioactivity, kidney ([3]; 10 min): 7.61 ± 1.23 % injected dose per gram
- Biodistribution of radioactivity, liver ([3]; 10 min): 12.07 ± 1.06 % injected dose per gram
- Biodistribution of radioactivity, lung ([3]; 10 min): 4.16 ± 0.26 % injected dose per gram
- Biodistribution of radioactivity, muscle ([3]; 10 min): 1.31 ± 0.12 % injected dose per gram
- Biodistribution of radioactivity, pancreas ([3]; 10 min): 2.44 ± 0.28 % injected dose per gram
- Biodistribution of radioactivity, spleen ([3]; 10 min): 1.29 ± 0.06 % injected dose per gram
- Biodistribution of radioactivity, stomach ([3]; 10 min): 1.34 ± 0.16 % injected dose per organ
- Biodistribution of radioactivity, thyroid ([3]; 10 min): 0.13 ± 0.01 % injected dose per organ
- Biodistribution of radioactivity, blood ([3]; 30 min): 3.89 ± 0.53 % injected dose per gram
- Biodistribution of radioactivity, brain ([3]; 30 min): 0.81 ± 0.06 % injected dose per gram
- Biodistribution of radioactivity, heart ([3]; 30 min): 1.67 ± 0.09 % injected dose per gram
- Biodistribution of radioactivity, intestine ([3]; 30 min): 16.61 ± 3.88 % injected dose per organ
- Biodistribution of radioactivity, kidney ([3]; 30 min): 7.44 ± 0.90 % injected dose per gram
- Biodistribution of radioactivity, liver ([3]; 30 min): 8.68 ± 1.02 % injected dose per gram
- Biodistribution of radioactivity, lung ([3]; 30 min): 3.56 ± 0.38 % injected dose per gram
- Biodistribution of radioactivity, muscle ([3]; 30 min): 0.99 ± 0.17 % injected dose per gram
- Biodistribution of radioactivity, pancreas ([3]; 30 min): 1.75 ± 0.10 % injected dose per gram
- Biodistribution of radioactivity, spleen ([3]; 30 min): 1.03 ± 0.10 % injected dose per gram
- Biodistribution of radioactivity, stomach ([3]; 30 min): 2.02 ± 0.49 % injected dose per organ
- Biodistribution of radioactivity, thyroid ([3]; 30 min): 0.19 ± 0.04 % injected dose per organ
- Biodistribution of radioactivity, blood ([3]; 60 min): 3.01 ± 1.07 % injected dose per gram
- Biodistribution of radioactivity, brain ([3]; 60 min): 0.37 % injected dose per gram
- Biodistribution of radioactivity, heart ([3]; 60 min): 1.17 ± 0.45 % injected dose per gram
- Biodistribution of radioactivity, intestine ([3]; 60 min): 18.84 ± 8.75 % injected dose per organ
- Biodistribution of radioactivity, kidney ([3]; 60 min): 6.09 ± 2.17 % injected dose per gram
- Biodistribution of radioactivity, liver ([3]; 60 min): 4.64 ± 0.77 % injected dose per gram
- Biodistribution of radioactivity, lung ([3]; 60 min): 3.11 ± 1.02 % injected dose per gram
- Biodistribution of radioactivity, muscle ([3]; 60 min): 1.20 ± 0.26 % injected dose per gram
- Biodistribution of radioactivity, pancreas ([3]; 60 min): 1.37 ± 0.41 % injected dose per gram
- Biodistribution of radioactivity, spleen ([3]; 60 min): 0.84 ± 0.31 % injected dose per gram
- Biodistribution of radioactivity, stomach ([3]; 60 min): 2.27 ± 0.40 % injected dose per organ
- Biodistribution of radioactivity, thyroid ([3]; 60 min): 0.34 ± 0.10 % injected dose per organ
- Biodistribution of radioactivity, brain ([3]; 60 min, listed as [125I]12a): 0.37 ± 0.06 % injected dose per gram
- in vitro autoradiography, plaque labeling (Aβ plaques): specifically label Aβ deposits

Structure (SMILES): FCCOc1ccc(OCc2ccc(I)cc2)cc1 [7a]
- Ki (Aβ42 aggregates): 19.5 nM
